Measured values reported in the CheMixHub viscosity set.

Test: xn = mol fraction of the nth substance listed

CC#N + CC(C)O
Conditions	viscosity [mPa·s]
293.15 K, 101.32 kPa, x1 = 0.0526	1.921
293.15 K, 101.32 kPa, x1 = 0.0771	1.736
293.15 K, 101.32 kPa, x1 = 0.1018	1.572
293.15 K, 101.32 kPa, x1 = 0.2227	1.15
293.15 K, 101.32 kPa, x1 = 0.3314	0.8622
293.15 K, 101.32 kPa, x1 = 0.3989	0.7354
293.15 K, 101.32 kPa, x1 = 0.55	0.5657
293.15 K, 101.32 kPa, x1 = 0.625	0.502
293.15 K, 101.32 kPa, x1 = 0.6893	0.4639
293.15 K, 101.32 kPa, x1 = 0.7624	0.4194
293.15 K, 101.32 kPa, x1 = 0.864	0.3823
298.15 K, 101 kPa, x1 = 0.1056	1.372
298.15 K, 101 kPa, x1 = 0.1688	1.145
298.15 K, 101 kPa, x1 = 0.2531	0.923
298.15 K, 101 kPa, x1 = 0.4135	0.653
298.15 K, 101 kPa, x1 = 0.5014	0.556
298.15 K, 101 kPa, x1 = 0.6077	0.473
298.15 K, 101 kPa, x1 = 0.7093	0.424
298.15 K, 101 kPa, x1 = 0.8276	0.373
298.15 K, 101 kPa, x1 = 0.9013	0.356
298.15 K, 101.3 kPa, x1 = 0.1399	1.254
298.15 K, 101.3 kPa, x1 = 0.2679	0.846
298.15 K, 101.3 kPa, x1 = 0.3855	0.66
298.15 K, 101.3 kPa, x1 = 0.4939	0.541
298.15 K, 101.3 kPa, x1 = 0.5942	0.482
298.15 K, 101.3 kPa, x1 = 0.6871	0.419
298.15 K, 101.3 kPa, x1 = 0.7736	0.372
298.15 K, 101.3 kPa, x1 = 0.8541	0.343
298.15 K, 101.3 kPa, x1 = 0.9295	0.342
303.15 K, 101 kPa, x1 = 0.1056	1.088
303.15 K, 101 kPa, x1 = 0.1688	0.918
303.15 K, 101 kPa, x1 = 0.2531	0.762
303.15 K, 101 kPa, x1 = 0.4135	0.551
303.15 K, 101 kPa, x1 = 0.5014	0.482
303.15 K, 101 kPa, x1 = 0.6077	0.417
303.15 K, 101 kPa, x1 = 0.7093	0.382
303.15 K, 101 kPa, x1 = 0.8276	0.341
303.15 K, 101 kPa, x1 = 0.9013	0.327
303.15 K, 101.3 kPa, x1 = 0.1399	1.114
303.15 K, 101.3 kPa, x1 = 0.2679	0.758
303.15 K, 101.3 kPa, x1 = 0.3855	0.599
303.15 K, 101.3 kPa, x1 = 0.4939	0.502
303.15 K, 101.3 kPa, x1 = 0.5942	0.45
303.15 K, 101.3 kPa, x1 = 0.6871	0.394
303.15 K, 101.3 kPa, x1 = 0.7736	0.356
303.15 K, 101.3 kPa, x1 = 0.8541	0.327
303.15 K, 101.3 kPa, x1 = 0.9295	0.326
303.15 K, 101.32 kPa, x1 = 0.0526	1.464
303.15 K, 101.32 kPa, x1 = 0.0771	1.361
303.15 K, 101.32 kPa, x1 = 0.1018	1.239
303.15 K, 101.32 kPa, x1 = 0.2227	0.9168
303.15 K, 101.32 kPa, x1 = 0.3314	0.7097
303.15 K, 101.32 kPa, x1 = 0.3989	0.6154
303.15 K, 101.32 kPa, x1 = 0.55	0.4831
303.15 K, 101.32 kPa, x1 = 0.625	0.4366
303.15 K, 101.32 kPa, x1 = 0.6893	0.407
303.15 K, 101.32 kPa, x1 = 0.7624	0.378
303.15 K, 101.32 kPa, x1 = 0.864	0.344
308.15 K, 101 kPa, x1 = 0.1056	0.871
308.15 K, 101 kPa, x1 = 0.1688	0.739
308.15 K, 101 kPa, x1 = 0.2531	0.635
308.15 K, 101 kPa, x1 = 0.4135	0.475
308.15 K, 101 kPa, x1 = 0.5014	0.42
308.15 K, 101 kPa, x1 = 0.6077	0.372
308.15 K, 101 kPa, x1 = 0.7093	0.345
308.15 K, 101 kPa, x1 = 0.8276	0.312
308.15 K, 101 kPa, x1 = 0.9013	0.302
308.15 K, 101.3 kPa, x1 = 0.1399	0.995
308.15 K, 101.3 kPa, x1 = 0.2679	0.687
308.15 K, 101.3 kPa, x1 = 0.3855	0.546
308.15 K, 101.3 kPa, x1 = 0.4939	0.465
308.15 K, 101.3 kPa, x1 = 0.5942	0.417
308.15 K, 101.3 kPa, x1 = 0.6871	0.37
308.15 K, 101.3 kPa, x1 = 0.7736	0.331
308.15 K, 101.3 kPa, x1 = 0.8541	0.311
308.15 K, 101.3 kPa, x1 = 0.9295	0.309
313.15 K, 101.3 kPa, x1 = 0.1399	0.889
313.15 K, 101.3 kPa, x1 = 0.2679	0.623
313.15 K, 101.32 kPa, x1 = 0.0526	1.125
313.15 K, 101.32 kPa, x1 = 0.0771	1.047
313.15 K, 101.32 kPa, x1 = 0.1018	0.991
313.15 K, 101.32 kPa, x1 = 0.2227	0.7301
313.15 K, 101.32 kPa, x1 = 0.3314	0.5949
313.15 K, 101.32 kPa, x1 = 0.3989	0.5253
313.15 K, 101.32 kPa, x1 = 0.55	0.4201
313.15 K, 101.32 kPa, x1 = 0.625	0.3817
313.15 K, 101.32 kPa, x1 = 0.6893	0.361
313.15 K, 101.32 kPa, x1 = 0.7624	0.3321
313.15 K, 101.32 kPa, x1 = 0.864	0.3081
323.15 K, 101 kPa, x2 = 0.0989	0.289
323.15 K, 101 kPa, x2 = 0.1994	0.312
323.15 K, 101 kPa, x2 = 0.2943	0.34
323.15 K, 101 kPa, x2 = 0.3965	0.378
323.15 K, 101 kPa, x2 = 0.4864	0.427
323.15 K, 101 kPa, x2 = 0.6077	0.499
323.15 K, 101 kPa, x2 = 0.7049	0.58
323.15 K, 101 kPa, x2 = 0.8007	0.685
323.15 K, 101 kPa, x2 = 0.8971	0.815
323.15 K, 101.32 kPa, x1 = 0.0526	0.9024
323.15 K, 101.32 kPa, x1 = 0.0771	0.8427
323.15 K, 101.32 kPa, x1 = 0.1018	0.7839
323.15 K, 101.32 kPa, x1 = 0.2227	0.6091
323.15 K, 101.32 kPa, x1 = 0.3314	0.5031
323.15 K, 101.32 kPa, x1 = 0.3989	0.4466
323.15 K, 101.32 kPa, x1 = 0.55	0.3731
323.15 K, 101.32 kPa, x1 = 0.625	0.3434
323.15 K, 101.32 kPa, x1 = 0.6893	0.329
323.15 K, 101.32 kPa, x1 = 0.7624	0.3054
323.15 K, 101.32 kPa, x1 = 0.864	0.2835
